# Like-named read-outs stand apart in the source and are kept apart here.
# Columns and labels:
# [1] = molecular target: T1, GAL4-PPARγ chimera (ligand-binding domain of the murine PPARγ) (Mus musculus, UniProt P37238); experiment: Transient cotransfection assay: SPAP reporter; type: cell-based; conditions: for fold induction at 10 µM: read-out: Fold Activation
# T1 construct: transient in CV-1 cells with UAS-tk-SPAP reporter
# T1 sequence (P37238 204-505): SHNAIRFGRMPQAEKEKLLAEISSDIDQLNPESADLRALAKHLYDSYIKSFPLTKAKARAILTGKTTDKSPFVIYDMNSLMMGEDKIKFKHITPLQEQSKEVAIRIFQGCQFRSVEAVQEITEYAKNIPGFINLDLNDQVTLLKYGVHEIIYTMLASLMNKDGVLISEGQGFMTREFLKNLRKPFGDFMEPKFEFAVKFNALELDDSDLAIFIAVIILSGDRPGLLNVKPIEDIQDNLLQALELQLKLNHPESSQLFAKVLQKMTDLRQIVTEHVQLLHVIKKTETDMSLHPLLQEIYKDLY
# From the text: A transient cotransfection assay was used to screen for activators of PPARγ. As mammalian cell lines contain endogenous nuclear receptors that can complicate interpretation of the results, we used an established chimera system in which the ligand-binding domain of the murine PPARγ was fused to the DNA binding domain of the yeast transcription factor GAL4. The GAL4-PPARγ chimera was cotransfected into CV-1 cells with a reporter construct containing five copies of the GAL4 binding site upstream of the thymidine kinase promoter driving secreted placental alkaline phosphatase (SPAP) as reporter.
# GAL4-PPAR chimeras and UAS-tk-CAT/SPAP reporters.
# CV-1 cells were plated in DME medium supplemented with 10% delipidated fetal calf serum at a density of 2.4×10^4 cells per well in a 96-well plate (Costar) 16-24 h before transfection. In general, 8.0 ng of reporter plasmid, 25.0 ng of β-galactosidase expression vector (pCH110, Pharamacia), and 2.0 ng of GAL4-PPARγ expression vector were mixed with carrier DNA (pBluescript, Stratagene) to a total of 80 ng of DNA per well in a volume of 10 μl optiME medium (GIBCO BRL). To this, a second mix, containing 9.3 μl optiME medium and 0.7 μl of LIPOFECTAMINE™ (GIBCO BRL), was added. After 30 min. an additional 80 μl of optiME medium were added and the combined mix was then applied to the cells.
# GST-PPARγ LBD = molecular target: T2, GST-PPARγ LBD (Mus musculus, UniProt P37238); experiment: Saturation binding of radiolabeled ligand to GST-PPARγ LBD; set-up: species or system murine; conditions: for non-specific binding: 500-fold excess of nontritiated compound
# T2 construct: cDNA encoding amino acids 174 to 475 of PPARg1; made in house; host or cells: E. coli BL21 (DE3)plysS, crude bacterial extract
# T2 sequence (P37238 174-475 isoform P37238-2): T1 sequence (P37238 204-505)
# Method: (§1) To test for direct interactions between thiazolidinediones and PPARγ,the ligand binding domain of PPARγ was expressed in E. Coli as a fusion protein with glutathionine-S-transferase (GST-PPARγ LBD).
# Bound was separated from free radioactivity by elution through 1 ml Sephadex G-25 desalting columns (Boehringer Mannheim). Bound radioactivity eluted in the column void volume and was quantitated by liquid scintillation counting.
# [2] = tested on: glutathione-S-transferase; experiment: Binding control in extracts from bacteria expressing glutathione-S-transferase; conditions: extracts from bacteria expressing glutathione-S-transferase alone
# From the text: as §1
# pre-adipocyte cell lines = conditions: cited from earlier work
# [3] = tested on: enhancer/promoter of the lipid-binding protein aP2; conditions: Harris and Kletzien, 1994; cited from earlier work
# [4] = CV-1 cells, SPAP reporter, test compound at 10^-5 M, 24 h
structure (smiles),measurement,setting,value
CN(C)c1ccc(Cc2ccc(N(C)C)cc2CC(=O)O)cc1 [[5-Dimethylamino-2-(4-dimethylamino-benzyl)-phenyl]-acetic acid],fold induction at 10 µM,[1]; [4],17.8
CCCCCC(C)c1ccc(C2=CCCC2CCCCCCC(=O)O)cc1 (stereo not drawn) [7-{2-[4-(1-Methyl-hexyl)-phenyl]-cyclopent-2-enyl}-heptanoic acid],fold induction at 10 µM,[1]; [4],27
O=C(O)CCCCCCC1=C(c2ccc(C(O)C3CCCC3)cc2)CCC1=O (stereo not drawn) [7-{2-[4-(Cyclopentyl-hydroxy-methyl)-phenyl]-5-oxo-cyclopent-1-enyl}-heptanoic acid],fold induction at 10 µM,[1]; [4],24.6
CCCCCC(O)C=CC1C(=O)CC(O)C1CC=CCCCC(=O)O (stereo not drawn) [7-[5-Hydroxy-2-(3-hydroxy-oct-1-enyl)-3-oxo-cyclopentyl]-hept-5-enoic acid],fold induction at 10 µM,[1]; [4],23.8
"O=C1NC(=O)C(Cc2ccc3c(c2)CCC(Cc2ccccc2)O3)S1 (stereo not drawn) [5-(2-Benzyl-chroman-6-ylmethyl)-thiazolidine-2,4-dione]",fold induction at 10 µM,[1]; [4],18.2
"CC1(COc2ccc(CC3SC(=O)NC3=O)cc2)CCCCC1 (stereo not drawn) [5-[4-(1-methyl-cyclohexylmethoxy)-benzyl)-thiazolidine-2,4-dione]",fold induction at 10 µM,[1]; [4],46.1
"Cc1cccc(Nc2cc(Cl)nc(SCC(=O)O)n2)c1C [{4-Chloro-6-(2,3-dimethyl-phenylamino)-pyrimidin-2-ylsulfanyl}-acetic acid]",fold induction at 10 µM,[1]; [4],25.7
CCCCCC(=O)C=CC1C(O)CC(=O)C1CCCCCCC(=O)O (stereo not drawn) [7-[43-Hydroxy-5-oxo-2-(3-oxo-oct-1-enyl)-cyclopentyl]-heptanoic acid],Fold Activation,"[1]; CV-1 cells, SPAP reporter, test compound at 10^-5 M, 24 h, 10 µM",25.6
CCCc1c(-c2ccccc2)[nH]c2ccc(CC(=O)O)cc12 [(2-Phenyl-3-propyl-1H-indol-5-yl)-acetic acid],fold induction at 10 µM,[1]; [4],21.7
"CC1(C)CCC(C)(C)c2cc3ncc(-c4ccccc4C(=O)O)cc3cc21 [2-(6,6,9,9-tetramethyl-6,7,8,9-tterahydro-benzo[g]quinolin-3-yl)-benzoic acid]",fold induction at 10 µM,[1]; [4],25.9
CCCCCC(O)C=CC1C(O)CC2CC(=CCCCC(=O)O)CC21 (stereo not drawn) [5-[5-Hydroxy-4-(3-hydroxy-oct-1-enyl)-hexahydro-pentalen-2-ylidene]-pentanoic acid],fold induction at 10 µM,"[1]; CV-1, 24 h",19.6
CCCCc1nc(Cl)c(C(=O)NCC(=O)OCC)n1Cc1ccc2oc(-c3ccccc3C(=O)O)c(Br)c2c1 [2-[3-Bromo-5-(2-butyl-4-chloro-5-ethoxycarbonylmethylcarbamoyl-imidazol-1-ylmethyl)-benzofuran-2-yl]-benzoic acid],fold induction at 10 µM,[1]; [4],23.9
"CC(C)Oc1cc(CCCCC(=O)O)c(C=CC(=O)CCCCCC(=O)O)c(OC(C)C)c1 [9-[2-(4-Carboxy-butyl)-4,6-diisopropoxy-phenyl]-7-oxo-non-8-enoic acid]",fold induction at 10 µM,[1]; [4],11.3
"CN(CCOc1ccc(CC2SC(=O)NC2=O)cc1)c1ccccn1 (stereo not drawn) [5-{4-[2-(Methyl-pyridine-2-yl-amino)-ethoxy]-benzyl}-thiazolidine-2,4-dione]",Specific binding,GST-PPARγ LBD; at 100 nM tritiated ligand,"13,500 dpm"
same,non-specific binding,GST-PPARγ LBD; at 100 nM tritiated ligand,"1,700 dpm"
same,Specific binding,GST-PPARγ LBD; at 200 nM tritiated ligand,"14,500 dpm"
same,non-specific binding,GST-PPARγ LBD; at 200 nM tritiated ligand,"1,900 dpm"
same,Binding,[2],No binding was detected
O=C(O)Cc1ccc2[nH]c(-c3ccccc3)c(CCc3ccccc3)c2c1 [(3-phenethyl-2-phenyl-1H-indol-5-yl)-acetic acid],fold induction at 10 µM,[1]; [4],21.2
CCc1ccc(CCOc2ccc(CC3SC(=O)NC3=O)cc2)nc1 (stereo not drawn) [pioglitazone],Expression of adipocyte-specific genes aP2 and adipsin and glucose transporter proteins GLUT-1 and GLUT-4,pre-adipocyte cell lines,increased expression
same,Expression of chimeric aP2 enhancer/promoter CAT reporter gene,[3],stimulate expression
